Source: patent publication US5049550A, “Diadenosine 5', 5'"-p^1, p^4,-tetraphosphate analogs as antithrombotic agents” (Worcester Foundation for Experimental Biology, priority 1988, dated 1991)
“Also recorded” adds a separate entry of the source. Where two headings read alike, the source gives them in different places.

Experiments:
[1] = system: Intracarotid Artery Thrombosis; conditions: rabbit model, literature; cited from earlier work
[2] = system: ADP-Induced Platelet Aggregation; experiment: ADP-induced platelet aggregation in human platelet-rich plasma; format: cell-based; conditions: for inhibition of platelet aggregation compared with E10: ADP; for inhibition of platelet aggregation (in words): FIG. 5 at 12.5 μM; for effect on platelet inhibition at 50 μM: even at 50 μM
Procedure: Human platelet-rich plasma was pre-incubated at 37° C. with the appropriate analogue for 1 minute. Aggregation was then induced by 5 μM ADP. ID50 values (i.e. concentration of analogue at which platelets are inhibited by 50 percent) were obtained from log-dose response plots.
FIG. 5 is a graphic representation of the data.
This Example illustrates that sulfur-containing analogues of AP4 A are as effective as E10 in inhibiting aggregation of platelets. Platelet aggregation was induced by ADP and its inhibition measured as in the previous Example.

[3] = system: ADP-induced platelet aggregation; experiment: Kinetics of ADP-induced platelet aggregation (double-reciprocal plot); format: cell-based; conditions: FIG. 6
Procedure: Changes in light transmission reflecting the velocity of ADP-induced platelet aggregability was determined using a platelet aggregometer. Born, G.V.P., Nature 184:927-929 (1962). […] The Y points on the X-intercept are altered by factors [formula] where I is the concentration of inhibitor, and Ki is a characteristic constant. Points on the X-intercept are given by the expression [formula] intercept when [I]=0. When [I] is known, the equation can be solved for Ki.

[4] = system: Intracarotid Artery Thrombosis; experiment: Intracarotid cannula arterial thrombosis model in rabbits; format: in vivo, rabbit
Procedure: Gurewich, V. and Lipinski, B. Thrombosis Research, 9:101 (1976); Louie, S. and Gurewich, V. Thrombosis Research, 30:323-335 (1983).
Male, New Zealand white rabbits, weighing 2-2.5 kg., were anesthetized with ketamine hydrochloride (100 mg/kg intramuscularly). AP4 A (Boehringer (100 Mannheim Biochemicals, Indianapolis, Ind.), or saline control was infused via a marginal ear vein. A segment of the left common carotid artery was isolated by vascular clamps. A 1 cm. length of polyethylene tubing (PE-90, Clay Adams, Parsippany, N.Y.) was inserted, secured by silk ligatures, and the blood flow re-established by removing the clamps. Blood was sampled from the right carotid artery for assays of AP4 A and ATP, and for platelet aggregation studies.
After preliminary trials, a standard AP4 A infusion protocol was established as follows: A dose of AP4 A at 50 mg/kg was reconstituted in 10 ml of normal saline and infused by pump at a uniform rate over two hours. Control rabbits received 10 ml of saline alone. The intracarotid cannula was inserted, and the re-establishment of blood flow timed at 15 minutes into the infusion. Upon the completion of infusion at 2 hours, the intracarotid tubing was removed, and its contents flushed out into a petri dish. The presence of a clot or of liquid blood contents was noted.
Twenty-five rabbits each were assigned to the experimental group that received AP4 A (50 mg/kg), and the control group that received normal saline alone. The incidence of clot formation in the intracarotid cannula in the two groups was compared by the Chi-Square test.
Initially, twelve rabbits received a constant infusion of E10 over a 2 hour period at a dosage of 100 mg in 10 ml. These intravenous infusions were performed as described above for AP4 A.
In addition, 30 mg of E10 in 3 ml saline was administered as a single injection over a one minute time span at the beginning of the cannulation period.

[5] = plasma; cited from earlier work
platelets = conditions: cited from earlier work
[6] = system: rabbit platelet aggregation by ADP; experiment: ADP-induced aggregation of rabbit platelets; format: cell-based; conditions: ADP 2×10^-5 M
Procedure: (§1) Rabbit carotid arterial blood was collected in 3.8% sodium citrate (9 volumes blood to 1 volume citrate). Platelet rich plasma (PRP) and platelet poor plasma (PPP) were prepared by centrifugation at 150 g and 1,000 g for 10 minutes respectively. Aggregation studies were performed in a Chrono-Log (Havertown, Pa.) aggregometer with ADP or collagen as aggregating agents. ADP (Sigma Chemical Co.) was used in a final concentration of 2×10^-5 M. Calf skin collagen (Sigma Chemical Co.) was used in a final concentration of 200 ug/ml.
(§2) The effect of AP4 A on rabbit platelet aggregation by ADP and collagen was tested. […] The anti-aggregatory effect of AP4 A was detected at a concentration of 2×10^-4 M (tenfold that of ADP) and increased in a dose-response pattern with increasing concentrations (FIG. 1).

[7] = system: rabbit platelet aggregation by collagen; experiment: Collagen-induced aggregation of rabbit platelets; format: cell-based; conditions: collagen 200 ug/ml
Procedure: as §1, §2

[8] = Homo sapiens, Platelet, Table 3, 5 μM ADP, 1 minute pre-incubation at 37° C., read-out: ID50 (concentration of analogue at which platelets are inhibited by 50 percent)
[9] = Homo sapiens, Platelet, Table 5, sulfur-containing analogues, induced by ADP, read-out: ID50 (the source's name)
[10] = E10 30 mg, single injection over one minute, 6 rabbits
[11] = E10 100 mg, 2 h infusion, 12 rabbits
[12] = E10 total (100 mg + 30 mg series), 18 rabbits

## CCCCCCCCNC(C)C(O)c1ccc(SC(C)C)cc1 (stereo not shown) [suloctidil]
[1]
  effect on clot formation in intracarotid cannula: can be modified

## CC(=O)Oc1ccccc1C(=O)O [aspirin]
[1]
  effect on clot formation in intracarotid cannula: can be modified

## Nc1ncnc2c1ncn2[C@@H]1O[C@H](COP(=O)(O)OP(=O)(O)C(F)(F)P(=O)(O)OP(=O)(O)OC[C@H]2O[C@@H](n3cnc4c(N)ncnc43)[C@H](O)[C@@H]2O)[C@@H](O)[C@H]1O [Analogue E8, App(CF2)ppA]
[2]; [8]
  IC50: 6 µM

## Nc1ncnc2c1ncn2[C@@H]1O[C@H](COP(=O)(O)OP(=O)(O)CCP(=O)(O)OP(=O)(O)OC[C@H]2O[C@@H](n3cnc4c(N)ncnc43)[C@H](O)[C@@H]2O)[C@@H](O)[C@H]1O [Analogue E3, App(CH2)2 ppA]
[2]; [8]
  IC50: 11 µM

## Nc1ncnc2c1ncn2[C@@H]1O[C@H](COP(O)(=S)OP(=O)(O)OP(=O)(O)OP(O)(=S)OC[C@H]2O[C@@H](n3cnc4c(N)ncnc43)[C@H](O)[C@@H]2O)[C@@H](O)[C@H]1O (stereo partly shown) [Analogue E15, Aps ppps A]
[2]; [9]
  IC50: 6 µM
[2]; sulfur-containing analogues
  inhibition of platelet aggregation compared with E10: an inhibitory effect as great as E10

## Nc1ncnc2c1ncn2[C@@H]1O[C@H](COP(=O)(O)C(F)(F)P(=O)(O)OP(=O)(O)C(F)(F)P(=O)(O)OC[C@H]2O[C@@H](n3cnc4c(N)ncnc43)[C@H](O)[C@@H]2O)[C@@H](O)[C@H]1O [Analogue E7, Ap(CF2)pp(CF2)pA]
[2]; [8]
  IC50: 15 µM

## Nc1ncnc2c1ncn2[C@@H]1O[C@H](COP(O)(=S)OP(=O)(O)C(F)P(=O)(O)OP(O)(=S)OC[C@H]2O[C@@H](n3cnc4c(N)ncnc43)[C@H](O)[C@@H]2O)[C@@H](O)[C@H]1O (stereo partly shown) [Analogue E13, Aps p(CHF)pps A]
[2]; [9]
  IC50: 7 µM
[2]; sulfur-containing analogues
  inhibition of platelet aggregation compared with E10: an inhibitory effect as great as E10

## Nc1ncnc2c1ncn2[C@@H]1O[C@H](COP(=O)(O)OP(=O)(O)C(Cl)P(=O)(O)OP(=O)(O)OC[C@H]2O[C@@H](n3cnc4c(N)ncnc43)[C@H](O)[C@@H]2O)[C@@H](O)[C@H]1O (stereo partly shown) [Analogue E10, diadenosine chloromethylene tetraphosphate]
[2]; 5 μM ADP
  inhibition of platelet aggregation (in words): particularly effective; also recorded: the most effective inhibitor of platelet aggregation; also recorded: potent inhibitor of platelet aggregation; also recorded: potent inhibitors of platelet aggregation and blood clot formation
[2]; [8]
  IC50: 3 µM
[2]; [9]
  IC50: < 5 µM
[3]; competitive inhibition of ADP-induced aggregation
  Ki: 6.7 µM
[3]; double reciprocal plot
  type / relative strength of inhibition: superior to AP4 A as a competitive inhibitor
[4]; E10 30 mg and 100 mg series combined
  effect on clot formation compared to saline controls: significantly reduces clot formation
[4]; [10]
  % Clots: 33%
  Clot Absent (rabbits): 4
  Clot Present (rabbits): 2
[4]; E10 100 mg
  fraction of rabbits with no incidence of clotting: two-thirds
[4]; [11]
  % Clots: 33%
  Clot Absent (rabbits): 8
  Clot Present (rabbits): 4
[4]; [12]
  % Clots: 33%
  Clot Absent (rabbits): 12
  Clot Present (rabbits): 6

## OCCN(CCO)c1nc(N2CCCCC2)c2nc(N(CCO)CCO)nc(N3CCCCC3)c2n1 [dipyridamole]
[1]
  effect on clot formation in intracarotid cannula: can be modified

## Nc1ncnc2c1ncn2[C@@H]1O[C@H](COP(=O)(O)OP(=O)(O)CP(=O)(O)OP(=O)(O)OC[C@H]2O[C@@H](n3cnc4c(N)ncnc43)[C@H](O)[C@@H]2O)[C@@H](O)[C@H]1O [Analogue E2, App(CH2)ppA]
[2]; [8]
  IC50: 22 µM

## Nc1ncnc2c1ncn2C1OC(COP(=O)(O)CP(=O)(O)OP(=O)(O)CP(=O)(O)OCC2OC(n3cnc4c(N)ncnc43)C(O)C2O)C(O)C1O (stereo not shown) [Analogue E1, Ap(CH2)pp(CH2)pA]
[2]; Table 3, 5 μM ADP, 1 minute pre-incubation at 37° C., read-out: ID50 (concentration of analogue at which platelets are inhibited by 50 percent)
  IC50: > 50 µM
[2]
  effect on platelet inhibition at 50 μM: no effect on platelet inhibition

## Nc1ncnc2c1ncn2[C@@H]1O[C@H](COP(=O)(O)OP(=O)(O)OP(=O)(O)OC[C@H]2O[C@@H](n3cnc4c(N)ncnc43)[C@H](O)[C@@H]2O)[C@@H](O)[C@H]1O [AP3 A, diadenosine 5',5'"-p^1, p^3 -triphosphate]
[5]
  degradation products: hydrolysed in plasma to AMP (adenosine monophosphate) and ADP (adenosine diphosphate)
platelets
  effect on platelet aggregation: gradual aggregation of platelets; also recorded: immediately reversible upon the addition of AP4 A

## Nc1ncnc2c1ncn2[C@@H]1O[C@H](COP(=O)(O)OP(=O)(O)O)[C@@H](O)[C@H]1O [ADP, adenosine diphosphate, reference compound]
[3]
  Km: 3000 nM
[6]
  platelet aggregation by agonist: prompt and complete platelet aggregation

## Nc1ncnc2c1ncn2[C@@H]1O[C@H](COP(=O)(O)OP(=O)(O)C(Cl)(Cl)P(=O)(O)OP(=O)(O)OC[C@H]2O[C@@H](n3cnc4c(N)ncnc43)[C@H](O)[C@@H]2O)[C@@H](O)[C@H]1O [Analogue E12, App(CCl2)ppA]
[2]; [8]
  IC50: 10 µM

## collagen: Calf skin collagen (Sigma Chemical Co.) [reference compound]
[7]
  platelet aggregation by agonist: prompt and complete platelet aggregation

## Nc1ncnc2c1ncn2[C@@H]1O[C@H](COP(=O)(O)C(F)P(=O)(O)OP(=O)(O)C(F)P(=O)(O)OC[C@H]2O[C@@H](n3cnc4c(N)ncnc43)[C@H](O)[C@@H]2O)[C@@H](O)[C@H]1O (stereo partly shown) [Analogue E6, Ap(CHF)pp(CHF)pA]
[2]; [8]
  IC50: 50 µM

## Nc1ncnc2c1ncn2[C@@H]1O[C@H](COP(=O)(O)C(Cl)(Cl)P(=O)(O)OP(=O)(O)C(Cl)(Cl)P(=O)(O)OC[C@H]2O[C@@H](n3cnc4c(N)ncnc43)[C@H](O)[C@@H]2O)[C@@H](O)[C@H]1O [Analogue E11, Ap(CCL2)pp(CCl2)pA]
[2]; [8]
  IC50: 9 µM

## Nc1ncnc2c1ncn2[C@@H]1O[C@H](COP(=O)(O)CP(=O)(O)OP(=O)(O)CP(=O)(O)OC[C@H]2O[C@@H](n3cnc4c(N)ncnc43)[C@H](O)[C@@H]2O)[C@@H](O)[C@H]1O [Analogue E4, Ap(CH2)pp(CH2)pA]
[2]; [8]
  IC50: > 50 µM
[2]
  effect on platelet inhibition at 50 μM: no effect on platelet inhibition

## Nc1ncnc2c1ncn2[C@@H]1O[C@H](COP(=O)(O)OP(=O)(O)C(F)P(=O)(O)OP(=O)(O)OC[C@H]2O[C@@H](n3cnc4c(N)ncnc43)[C@H](O)[C@@H]2O)[C@@H](O)[C@H]1O (stereo partly shown) [Analogue E5, App(CHF)ppA]
[2]; 5 μM ADP
  inhibition of platelet aggregation (in words): particularly effective; also recorded: the next most effective in inhibiting platelet aggregation
[2]; [8]
  IC50: 4 µM

## Nc1ncnc2c1ncn2[C@@H]1O[C@H](COP(=O)(O)C(Cl)P(=O)(O)OP(=O)(O)C(Cl)P(=O)(O)OC[C@H]2O[C@@H](n3cnc4c(N)ncnc43)[C@H](O)[C@@H]2O)[C@@H](O)[C@H]1O (stereo partly shown) [Analogue E9, Ap(CHCl)pp(CHCl)pA]
[2]; [8]
  IC50: 19 µM

## Nc1ncnc2c1ncn2[C@@H]1O[C@H](COP(O)(=S)OP(=O)(O)C(F)(F)P(=O)(O)OP(O)(=S)OC[C@H]2O[C@@H](n3cnc4c(N)ncnc43)[C@H](O)[C@@H]2O)[C@@H](O)[C@H]1O (stereo partly shown) [Analogue E14, Aps p(CF2)pps A]
[2]; [9]
  IC50: 17 µM
